Data on 17 compounds can be found in ChEMBL document CHEMBL1641529, “Novel 9a,11-bridged azalides: One-pot synthesis of N'-substituted 2-imino-1,3-oxazolidines condensed to an azalide aglycone” (2011).

The structures appear in SMILES notation. In brackets after ≈: the same amount, converted by molar mass.

One assay relates to Haemophilus influenzae. As to the kind of experiment: Antimicrobial activity against Haemophilus influenzae after 24 hrs by microdilution method. Type of assay: functional. Background: In broth dilution the organism is exposed to a series of concentrations in liquid medium.
Another assay deals with Streptococcus pneumoniae. As to the kind of experiment: Antimicrobial activity against Streptococcus pneumoniae after 24 hrs by microdilution method. It counts as functional.
Another assay deals with Saccharomyces cerevisiae. As to the kind of experiment: Toxicity in Saccharomyces cerevisiae after 24 hrs by microdilution method. Type of assay: functional, organism-based.
For a further assay, the system named is Streptococcus pyogenes. As to the kind of experiment: Antimicrobial activity against Streptococcus pyogenes after 24 hrs by microdilution method. It counts as functional.
A further assay concerns Staphylococcus aureus. In words: Antimicrobial activity against Staphylococcus aureus after 24 hrs by microdilution method. Type of assay: functional.
A further assay concerns Moraxella catarrhalis. As to the kind of experiment: Antimicrobial activity against Moraxella catarrhalis after 24 hrs by microdilution method. Type of assay: functional.

As for `CC[C@H]1OC(=O)[C@H](C)[C@@]2(O)O[C@@](C)(C[C@@H](C)CN3/C(=N\Cc4ccccc4)O[C@H]([C@H]3C)[C@]1(C)O)[C@H](O[C@@H]1O[C@H](C)C[C@H](N(C)C)[C@H]1O)[C@H]2C`, the MIC in the assay on Haemophilus influenzae was greater than 64 µg/mL; in the assay on Streptococcus pneumoniae, 32 µg/mL (≈ 46.4 µM); against Streptococcus pyogenes, 32 µg/mL (≈ 46.4 µM); in the assay on Staphylococcus aureus, greater than 64 µg/mL; against Moraxella catarrhalis it was 32 µg/mL (≈ 46.4 µM). Also, the Activity result with Saccharomyces cerevisiae was “Not toxic”.
On to `CC[C@H]1OC(=O)[C@H](C)[C@@H](O[C@@H]2C[C@@](C)(OC)[C@@H](O)[C@H](C)O2)[C@H](C)[C@@H](O[C@@H]2O[C@H](C)C[C@H](N(C)C)[C@H]2O)[C@](C)(O)C[C@@H](C)CN2/C(=N\C(C)C)O[C@H]([C@H]2C)[C@]1(C)O`, for which the MIC against Haemophilus influenzae is greater than 64 µg/mL; against Streptococcus pneumoniae, 2 µg/mL (≈ 2.49 µM); against Streptococcus pyogenes, 2 µg/mL (≈ 2.49 µM); against Staphylococcus aureus, 16 µg/mL (≈ 19.9 µM); in the assay with Moraxella catarrhalis, 16 µg/mL (≈ 19.9 µM). For the same compound, the Activity result in the assay on Saccharomyces cerevisiae is “Not toxic”.
As for `CC[C@H]1OC(=O)[C@H](C)C(=O)[C@H](C)[C@@H](O[C@@H]2O[C@H](C)C[C@H](N(C)C)[C@H]2O)[C@](C)(OC)C[C@@H](C)CN2/C(=N\C(C)C)O[C@H]([C@H]2C)[C@]1(C)O`, the MIC was greater than 64 µg/mL in the assay on Haemophilus influenzae; 16 µg/mL (≈ 24.4 µM) in the assay on Streptococcus pneumoniae; greater than 64 µg/mL with Streptococcus pyogenes; greater than 64 µg/mL in the assay on Staphylococcus aureus; 16 µg/mL (≈ 24.4 µM) in the assay on Moraxella catarrhalis. Further, in the assay with Saccharomyces cerevisiae, the Activity result was “Not toxic”.
`CC[C@H]1OC(=O)[C@H](C)[C@@]2(O)O[C@@](C)(C[C@@H](C)CN3/C(=N\C(C)C)O[C@H]([C@H]3C)[C@]1(C)O)[C@H](O[C@@H]1O[C@H](C)C[C@H](N(C)C)[C@H]1O)[C@H]2C`: the MIC against Haemophilus influenzae is greater than 64 µg/mL; in the assay with Streptococcus pneumoniae it was 16 µg/mL (≈ 24.9 µM); against Streptococcus pyogenes, 32 µg/mL (≈ 49.9 µM); against Staphylococcus aureus, greater than 64 µg/mL; against Moraxella catarrhalis, 32 µg/mL (≈ 49.9 µM). Also, in the assay with Saccharomyces cerevisiae, the Activity result is “Not toxic”.
Regarding `CC[C@H]1OC(=O)[C@H](C)[C@@H](O)[C@H](C)[C@@H](O[C@@H]2O[C@H](C)C[C@H](N(C)C)[C@H]2O)[C@](C)(OC)C[C@@H](C)CN2/C(=N\Cc3ccccc3)O[C@H]([C@H]2C)[C@]1(C)O`, the MIC in the assay on Haemophilus influenzae is greater than 64 µg/mL; against Streptococcus pneumoniae it was 32 µg/mL (≈ 45.3 µM); with Streptococcus pyogenes, 16 µg/mL (≈ 22.7 µM); against Staphylococcus aureus, greater than 64 µg/mL; in the assay with Moraxella catarrhalis, greater than 64 µg/mL. In the assay on Saccharomyces cerevisiae, the Activity result was “Not toxic”.
On to `CC[C@H]1OC(=O)[C@H](C)[C@@H](O[C@@H]2C[C@@](C)(OC)[C@@H](O)[C@H](C)O2)[C@H](C)[C@@H](O[C@@H]2O[C@H](C)C[C@H](N(C)C)[C@H]2O)[C@](C)(OC)C[C@@H](C)CN2/C(=N\Cc3ccccc3)O[C@H]([C@H]2C)[C@]1(C)O`, for which the MIC was 16 µg/mL (≈ 18.5 µM) with Haemophilus influenzae; less than 0.125 µg/mL against Streptococcus pneumoniae; less than 0.125 µg/mL against Streptococcus pyogenes; 2 µg/mL (≈ 2.31 µM) with Staphylococcus aureus; 2 µg/mL (≈ 2.31 µM) against Moraxella catarrhalis. The Activity result in the assay on Saccharomyces cerevisiae was “Not toxic”.
For `CC[C@H]1OC(=O)[C@H](C)[C@@H](O)[C@H](C)[C@@H](O[C@@H]2O[C@H](C)C[C@H](N(C)C)[C@H]2O)[C@](C)(OC)C[C@@H](C)CN2/C(=N\c3cccc4ccccc34)O[C@H]([C@H]2C)[C@]1(C)O`, the MIC against Haemophilus influenzae was greater than 64 µg/mL; in the assay on Streptococcus pneumoniae it was 64 µg/mL (≈ 86.3 µM); with Streptococcus pyogenes, greater than 64 µg/mL; against Staphylococcus aureus, greater than 64 µg/mL; in the assay on Moraxella catarrhalis, 16 µg/mL (≈ 21.6 µM). Further, the Activity entry in the assay on Saccharomyces cerevisiae was “Not toxic”.
Regarding `CC[C@H]1OC(=O)[C@H](C)[C@@H](O[C@@H]2C[C@@](C)(OC)[C@@H](O)[C@H](C)O2)[C@H](C)[C@@H](O[C@@H]2O[C@H](C)C[C@H](N(C)C)[C@H]2O)[C@](C)(O)C[C@@H](C)CN2/C(=N\c3ccc(-c4ccccc4)cc3OC)O[C@H]([C@H]2C)[C@]1(C)O`, the MIC in the assay with Haemophilus influenzae was 8 µg/mL (≈ 8.49 µM); in the assay with Streptococcus pneumoniae it was less than 0.125 µg/mL; in the assay with Streptococcus pyogenes, less than 0.125 µg/mL; against Staphylococcus aureus it was 2 µg/mL (≈ 2.12 µM); against Moraxella catarrhalis, 8 µg/mL (≈ 8.49 µM). For the same compound, the Activity result in the assay on Saccharomyces cerevisiae was “Not toxic”.
For the compound `CC[C@H]1OC(=O)[C@H](C)[C@@H](O)[C@H](C)[C@@H](O[C@@H]2O[C@H](C)C[C@H](N(C)C)[C@H]2O)[C@](C)(O)C[C@@H](C)CN2/C(=N\c3cccc4ccccc34)O[C@H]([C@H]2C)[C@]1(C)O`, the MIC in the assay with Haemophilus influenzae was greater than 64 µg/mL; against Streptococcus pneumoniae, greater than 64 µg/mL; in the assay on Streptococcus pyogenes it was greater than 64 µg/mL; against Staphylococcus aureus, greater than 64 µg/mL; with Moraxella catarrhalis it was 64 µg/mL (≈ 87.9 µM). In addition, the Activity entry in the assay on Saccharomyces cerevisiae is “Not toxic”.
With `CC[C@H]1OC(=O)[C@H](C)[C@@H](O)[C@H](C)[C@@H](O[C@@H]2O[C@H](C)C[C@H](N(C)C)[C@H]2O)[C@](C)(O)C[C@@H](C)CN2/C(=N\c3ccc(-c4ccccc4)cc3OC)O[C@H]([C@H]2C)[C@]1(C)O`, the MIC against Haemophilus influenzae is greater than 64 µg/mL; in the assay with Streptococcus pneumoniae, greater than 64 µg/mL; against Streptococcus pyogenes, greater than 64 µg/mL; in the assay on Staphylococcus aureus, greater than 64 µg/mL; against Moraxella catarrhalis, 32 µg/mL (≈ 40.8 µM). The Activity entry with Saccharomyces cerevisiae was “Not toxic”.
Turning to `CC[C@H]1OC(=O)[C@H](C)[C@@H](O[C@@H]2C[C@@](C)(OC)[C@@H](O)[C@H](C)O2)[C@H](C)[C@@H](O[C@@H]2O[C@H](C)C[C@H](N(C)C)[C@H]2O)[C@](C)(O)C[C@@H](C)CN2/C(=N\c3cccc4ccccc34)O[C@H]([C@H]2C)[C@]1(C)O`, the MIC was 8 µg/mL (≈ 9.03 µM) in the assay with Haemophilus influenzae; less than 0.125 µg/mL with Streptococcus pneumoniae; 0.25 µg/mL (≈ 0.282 µM) in the assay on Streptococcus pyogenes; 8 µg/mL (≈ 9.03 µM) against Staphylococcus aureus; 4 µg/mL (≈ 4.51 µM) in the assay on Moraxella catarrhalis. Further, the Activity entry in the assay on Saccharomyces cerevisiae is “Not toxic”.
`CC[C@H]1OC(=O)[C@H](C)[C@@H](O)[C@H](C)[C@@H](O[C@@H]2O[C@H](C)C[C@H](N(C)C)[C@H]2O)[C@](C)(O)C[C@@H](C)CN2/C(=N\C(C)C)O[C@H]([C@H]2C)[C@]1(C)O`: the MIC in the assay with Haemophilus influenzae was greater than 64 µg/mL; against Streptococcus pneumoniae, 4 µg/mL (≈ 6.21 µM); in the assay with Streptococcus pyogenes, 8 µg/mL (≈ 12.4 µM); in the assay on Staphylococcus aureus it was greater than 64 µg/mL; against Moraxella catarrhalis it was greater than 64 µg/mL. The Activity entry in the assay with Saccharomyces cerevisiae was “Not toxic”.
For the compound `CC[C@H]1OC(=O)[C@H](C)[C@@H](O[C@@H]2C[C@@](C)(OC)[C@@H](O)[C@H](C)O2)[C@H](C)[C@@H](O[C@@H]2O[C@H](C)C[C@H](N(C)C)[C@H]2O)[C@](C)(OC)C[C@@H](C)CN2/C(=N\c3cccc4ccccc34)O[C@H]([C@H]2C)[C@]1(C)O`, the MIC with Haemophilus influenzae came out at 32 µg/mL (≈ 35.5 µM); against Streptococcus pneumoniae it was 0.5 µg/mL (≈ 0.555 µM); in the assay with Streptococcus pyogenes, 1 µg/mL (≈ 1.11 µM); in the assay with Staphylococcus aureus it was 16 µg/mL (≈ 17.8 µM); with Moraxella catarrhalis, 8 µg/mL (≈ 8.89 µM). In addition, the Activity entry with Saccharomyces cerevisiae is “Not toxic”.
With `CC[C@H]1OC(=O)[C@H](C)[C@@H](O[C@@H]2C[C@@](C)(OC)[C@@H](O)[C@H](C)O2)[C@H](C)[C@@H](O[C@@H]2O[C@H](C)C[C@H](N(C)C)[C@H]2O)[C@](C)(O)C[C@@H](C)CN2/C(=N\Cc3ccccc3)O[C@H]([C@H]2C)[C@]1(C)O`, the MIC against Haemophilus influenzae is 16 µg/mL (≈ 18.8 µM); with Streptococcus pneumoniae it was less than 0.125 µg/mL; with Streptococcus pyogenes, less than 0.125 µg/mL; in the assay on Staphylococcus aureus it was 2 µg/mL (≈ 2.35 µM); in the assay with Moraxella catarrhalis it was 2 µg/mL (≈ 2.35 µM). Moreover, the Activity result in the assay on Saccharomyces cerevisiae was “Not toxic”.
With `CC[C@H]1OC(=O)[C@H](C)[C@@H](O)[C@H](C)[C@@H](O[C@@H]2O[C@H](C)C[C@H](N(C)C)[C@H]2O)[C@](C)(O)C[C@@H](C)CN2/C(=N\Cc3ccccc3)O[C@H]([C@H]2C)[C@]1(C)O`, the MIC is greater than 64 µg/mL with Haemophilus influenzae; 8 µg/mL (≈ 11.6 µM) against Streptococcus pneumoniae; 8 µg/mL (≈ 11.6 µM) against Streptococcus pyogenes; 64 µg/mL (≈ 92.5 µM) in the assay with Staphylococcus aureus; 64 µg/mL (≈ 92.5 µM) in the assay on Moraxella catarrhalis. In addition, the Activity result in the assay on Saccharomyces cerevisiae is “Not toxic”.
`CC[C@H]1OC(=O)[C@H](C)C(=O)[C@H](C)[C@@H](O[C@@H]2O[C@H](C)C[C@H](N(C)C)[C@H]2O)[C@](C)(OC)C[C@@H](C)CN2/C(=N\Cc3ccccc3)O[C@H]([C@H]2C)[C@]1(C)O`: the MIC against Haemophilus influenzae was greater than 64 µg/mL; against Streptococcus pneumoniae, 2 µg/mL (≈ 2.84 µM); against Streptococcus pyogenes it was 8 µg/mL (≈ 11.4 µM); in the assay with Staphylococcus aureus it was greater than 64 µg/mL; against Moraxella catarrhalis, 8 µg/mL (≈ 11.4 µM). For the same compound, the Activity result in the assay on Saccharomyces cerevisiae was “Not toxic”.
`CC[C@H]1OC(=O)[C@H](C)[C@@H](O[C@@H]2C[C@@](C)(OC)[C@@H](O)[C@H](C)O2)[C@H](C)[C@@H](O[C@@H]2O[C@H](C)C[C@H](N(C)C)[C@H]2O)[C@](C)(OC)C[C@@H](C)CN2/C(=N\C(C)C)O[C@H]([C@H]2C)[C@]1(C)O`: the MIC is 64 µg/mL (≈ 78.4 µM) against Haemophilus influenzae; 0.5 µg/mL (≈ 0.613 µM) in the assay with Streptococcus pneumoniae; 1 µg/mL (≈ 1.23 µM) in the assay on Streptococcus pyogenes; 16 µg/mL (≈ 19.6 µM) in the assay on Staphylococcus aureus; 2 µg/mL (≈ 2.45 µM) against Moraxella catarrhalis. In addition, the Activity entry in the assay on Saccharomyces cerevisiae was “Not toxic”.
